According to US10220001B2, “Active self-healing biomaterial system” (The Regents of the University of Michigan, priority 2010, dated 2019):

Tested on: serum testosterone
Test: Testosterone suppression in rats after injection of leuprolide acetate self-encapsulated PLGA microspheres
Format: in vivo, male Sprague-Dawley rats
Conditions: for testosterone suppression: result in words
Description: Evaluation of testosterone suppression in rats following injection of leuprolide acetate self-encapsulated PLGA microspheres: The ability of PLGA self-healing microencapsulation to provide long-term in vivo release was evaluated by assessing long-term testosterone suppression after a single injection of leuprolide acetate self-encapsulated PLGA microspheres in male Sprague-Dawley rats (S5-S8). The treatment of experimental animals was in accordance with University committee on use and care of animals (University of Michigan UCUCA), and all NIH guidelines for the care and use of laboratory animals. Male Sprague-Dawley rats of 6 weeks old were housed in cages and given free access to standard laboratory food and water, and allowed one week to acclimate prior to study initiation. Animals were anesthetized with 2-4% isoflurane administered by a calibrated vaporizer (Midmark, Orchard Park, N.Y., USA). The leuprolide acetate self-encapsulated PLGA microspheres (1×2-month dose), leuprolide acetate solution (1×1-month dose), and blank SM PLGA microspheres without drug (1× dose) in a liquid vehicle (1% w/v carboxymethylcellulose and 2% w/v mannitol), and commercial 1-month Lupron Depot (Abbott Laboratories, North Chicago, Ill., USA) (2× dosing at days 0 and 28) were subcutaneously injected at the back (lower neck portion) of rats (6 animals/study group). […]
PLGA self-healing microencapsulation provides long-term delivery of bioactive large molecules in vivo—Long-term testosterone suppression in rats after single injection of leuprolide acetate self-encapsulated PLGA microspheres: Leuprolide acetate (Mw=1209.6 Da) is commonly used in the treatment of hormone-dependent cancers (e.g., prostate cancer) and gynecologic disorders (e.g., endometriosis and precocious puberty). […] The ability of PLGA self-healing microencapsulation to provide long-term in vivo release was evaluated by assessing long-term testosterone suppression in male Sprague-Dawley rats (six rats/study group) in comparison with commercial Lupron Depot™ and negative controls (FIG. 2C). […]

CCNC(=O)[C@@H]1CCCN1C(=O)[C@H](CCCNC(=N)N)NC(=O)[C@H](CC(C)C)NC(=O)[C@@H](CC(C)C)NC(=O)[C@H](Cc1ccc(O)cc1)NC(=O)[C@H](CO)NC(=O)[C@H](Cc1c[nH]c2ccccc12)NC(=O)[C@H](Cc1c[nH]cn1)NC(=O)[C@@H]1CCC(=O)N1 [leuprolide solution, Leuprolide acetate]
serum testosterone level (one day after subcutaneous injection): ~5 ng/mL
testosterone suppression: failed to provide testosterone suppression below the castration level
testosterone suppression (listed as solution leuprolide): ineffective to suppress testosterone
